Source: article PMC4584933, “Establishing the pig as a large animal model for vaccine development against human cancer” (Frontiers in Genetics, 2015)

How the values were obtained:
SLA-1*04:01 = assay: Peptide-MHC class I complex stability, scintillation proximity assay (SPA); parameters: species or system pig; conditions: biotinylated recombinant SLA heavy chain, 125I-β2m, excess unlabeled β2m, read every 40 min, number only if t1/2 ≥ 0.5 h, '-' = not stably binding
Outline: (§1)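 Biotinylated recombinant heavy chains captured on streptavidin scintillation plates with 125I-β2m and peptide; signal read every 40 min under dissociating conditions with excess unlabeled β2m. Signal duration gives complex half-life; ≥ 0.5 h counted as stable binder.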

PBMCs = assay: In vitro peptide stimulation of porcine PBMCs, IFN-γ release assay (ELISA); type: cell-based, pig; parameters: key to T cell response: “x” indicates that a response was found to this given peptide at least once; conditions: PBMCs of immunized pigs, 2 × 10^5/well, 5 μg/ml peptide, 67.5–70.0 h, IFN-γ ELISA; response = 2-fold increase vs day -2 and at least 25 pg/ml IFN-γ, found at least once; SLA restriction not included
SLA-1*07:02 = assay: Peptide-MHC class I complex stability, scintillation proximity assay (SPA); parameters: species or system pig; conditions: biotinylated recombinant SLA heavy chain, 125I-β2m, excess unlabeled β2m, read every 40 min, number only if t1/2 ≥ 0.5 h, '-' = not stably binding
Outline: as §1

SLA-2*04:01 = assay: as above; parameters: species or system pig; conditions: biotinylated recombinant SLA heavy chain, 125I-β2m, excess unlabeled β2m, read every 40 min, number only if t1/2 ≥ 0.5 h, '-' = not stably binding
Outline: as §1

LWDTAGQEDY [RhoC38, porcine RhoC-derived 9-11mer peptide]
Binder (t1/2 ≥ 0.5 h): half-life of peptide-SLA-1*04:01 complex (SLA-1*04:01): - (t1/2 (hours) is listed for each of the stably binding peptides (t1/2 ≥ 0.5 h))

EVFHQIHEY [IDO21, porcine IDO-derived 9-11mer peptide]
T cell response (PBMCs): x
Binder (t1/2 ≥ 0.5 h): half-life of peptide-SLA-1*07:02 complex (SLA-1*07:02): 10.1 h
Binder (t1/2 ≥ 0.5 h): half-life of peptide-SLA-2*04:01 complex (SLA-2*04:01): 23.8 h

DYDRLRPLSY [RhoC13, porcine RhoC-derived 9-11mer peptide]
Binder (t1/2 ≥ 0.5 h): half-life of peptide-SLA-1*04:01 complex (SLA-1*04:01): - (t1/2 (hours) is listed for each of the stably binding peptides (t1/2 ≥ 0.5 h))

SAAQSSIFQCF [IDO122, porcine IDO-derived 9-11mer peptide]
T cell response (PBMCs): x
Binder (t1/2 ≥ 0.5 h): half-life of peptide-SLA-1*04:01 complex (SLA-1*04:01): 30.2 h
Binder (t1/2 ≥ 0.5 h): half-life of peptide-SLA-2*04:01 complex (SLA-2*04:01): - (t1/2 (hours) is listed for each of the stably binding peptides (t1/2 ≥ 0.5 h))

DMANRISAFGY [RhoC8, porcine RhoC-derived 9-11mer peptide]
T cell response (PBMCs): x
Binder (t1/2 ≥ 0.5 h): half-life of peptide-SLA-1*07:02 complex (SLA-1*07:02): - (t1/2 (hours) is listed for each of the stably binding peptides (t1/2 ≥ 0.5 h))
Binder (t1/2 ≥ 0.5 h): half-life of peptide-SLA-2*04:01 complex (SLA-2*04:01): 1.1 h

NMDILFSFP [IDO85, porcine IDO-derived 9-11mer peptide]
T cell response (PBMCs): x
Binder (t1/2 ≥ 0.5 h): half-life of peptide-SLA-1*04:01 complex (SLA-1*04:01): 0.8 h

KKDPSGPMTY [IDO51, porcine IDO-derived 9-11mer peptide]
Binder (t1/2 ≥ 0.5 h): half-life of peptide-SLA-1*04:01 complex (SLA-1*04:01): - (t1/2 (hours) is listed for each of the stably binding peptides (t1/2 ≥ 0.5 h))

SIDSPDSLENI [RhoC47, porcine RhoC-derived 9-11mer peptide]
Binder (t1/2 ≥ 0.5 h): half-life of peptide-SLA-1*04:01 complex (SLA-1*04:01): - (t1/2 (hours) is listed for each of the stably binding peptides (t1/2 ≥ 0.5 h))

PMDNSWKIF [IDO96, porcine IDO-derived 9-11mer peptide]
Binder (t1/2 ≥ 0.5 h): half-life of peptide-SLA-1*04:01 complex (SLA-1*04:01): 0.7 h

YVDPKLFFNVL [IDO136, porcine IDO-derived 9-11mer peptide]
Binder (t1/2 ≥ 0.5 h): half-life of peptide-SLA-1*04:01 complex (SLA-1*04:01): - (t1/2 (hours) is listed for each of the stably binding peptides (t1/2 ≥ 0.5 h))

PLEELPHPY [IDO94, porcine IDO-derived 9-11mer peptide]
Binder (t1/2 ≥ 0.5 h): half-life of peptide-SLA-1*04:01 complex (SLA-1*04:01): - (t1/2 (hours) is listed for each of the stably binding peptides (t1/2 ≥ 0.5 h))

SKDQFPEVY [RhoC48, porcine RhoC-derived 9-11mer peptide]
Binder (t1/2 ≥ 0.5 h): half-life of peptide-SLA-1*04:01 complex (SLA-1*04:01): - (t1/2 (hours) is listed for each of the stably binding peptides (t1/2 ≥ 0.5 h))
Binder (t1/2 ≥ 0.5 h): half-life of peptide-SLA-2*04:01 complex (SLA-2*04:01): - (t1/2 (hours) is listed for each of the stably binding peptides (t1/2 ≥ 0.5 h))

TSSLHKALEVF [IDO123, porcine IDO-derived 9-11mer peptide]
Binder (t1/2 ≥ 0.5 h): half-life of peptide-SLA-1*04:01 complex (SLA-1*04:01): - (t1/2 (hours) is listed for each of the stably binding peptides (t1/2 ≥ 0.5 h))
Binder (t1/2 ≥ 0.5 h): half-life of peptide-SLA-2*04:01 complex (SLA-2*04:01): - (t1/2 (hours) is listed for each of the stably binding peptides (t1/2 ≥ 0.5 h))

SIDGLQGHKM [IDO115, porcine IDO-derived 9-11mer peptide]
Binder (t1/2 ≥ 0.5 h): half-life of peptide-SLA-1*04:01 complex (SLA-1*04:01): - (t1/2 (hours) is listed for each of the stably binding peptides (t1/2 ≥ 0.5 h))

HIDEDLGFAL [IDO35, porcine IDO-derived 9-11mer peptide]
Binder (t1/2 ≥ 0.5 h): half-life of peptide-SLA-1*04:01 complex (SLA-1*04:01): - (t1/2 (hours) is listed for each of the stably binding peptides (t1/2 ≥ 0.5 h))

ALEVFHQIHEY [IDO4, porcine IDO-derived 9-11mer peptide]
Binder (t1/2 ≥ 0.5 h): half-life of peptide-SLA-1*04:01 complex (SLA-1*04:01): - (t1/2 (hours) is listed for each of the stably binding peptides (t1/2 ≥ 0.5 h))

GVPSGSAAGF [IDO34, porcine IDO-derived 9-11mer peptide]
Binder (t1/2 ≥ 0.5 h): half-life of peptide-SLA-1*04:01 complex (SLA-1*04:01): - (t1/2 (hours) is listed for each of the stably binding peptides (t1/2 ≥ 0.5 h))

EVDGKQVEL [RhoC21, porcine RhoC-derived 9-11mer peptide]
Binder (t1/2 ≥ 0.5 h): half-life of peptide-SLA-1*04:01 complex (SLA-1*04:01): - (t1/2 (hours) is listed for each of the stably binding peptides (t1/2 ≥ 0.5 h))

SLENIPEKWTP [RhoC50, porcine RhoC-derived 9-11mer peptide]
Binder (t1/2 ≥ 0.5 h): half-life of peptide-SLA-1*04:01 complex (SLA-1*04:01): - (t1/2 (hours) is listed for each of the stably binding peptides (t1/2 ≥ 0.5 h))

LLDITSSLH [IDO67, porcine IDO-derived 9-11mer peptide]
T cell response (PBMCs): x
Binder (t1/2 ≥ 0.5 h): half-life of peptide-SLA-1*04:01 complex (SLA-1*04:01): 0.7 h
